Source: paper PMC11063903, “Engineering a human P2X2 receptor with altered ligand selectivity in yeast” (The Journal of Biological Chemistry, 2024)
Where a chain is given by its changes, count along the chain named.

How the values were obtained:
P2X2 F301W+F303Y+A304W = target: T1, P2X2 F301W+F303Y+A304W (Homo sapiens, UniProt Q9UBL9, A304W/F301W/F303Y); experiment: Fast GCaMP-mScarletI assay in yeast, P2X2 F301W+F303Y+A304W; type: cell-based; settings: for Bottom, best fit value / Hillslope, best fit value / Top, best fit value: four-parameter logistic fit of ΔF/ΔT
T1 construct: expressed in transfected cells; host or cells: S. cerevisiae BY4741 background
T1 sequence (Q9UBL9 1-471 F301W/F303Y/A304W): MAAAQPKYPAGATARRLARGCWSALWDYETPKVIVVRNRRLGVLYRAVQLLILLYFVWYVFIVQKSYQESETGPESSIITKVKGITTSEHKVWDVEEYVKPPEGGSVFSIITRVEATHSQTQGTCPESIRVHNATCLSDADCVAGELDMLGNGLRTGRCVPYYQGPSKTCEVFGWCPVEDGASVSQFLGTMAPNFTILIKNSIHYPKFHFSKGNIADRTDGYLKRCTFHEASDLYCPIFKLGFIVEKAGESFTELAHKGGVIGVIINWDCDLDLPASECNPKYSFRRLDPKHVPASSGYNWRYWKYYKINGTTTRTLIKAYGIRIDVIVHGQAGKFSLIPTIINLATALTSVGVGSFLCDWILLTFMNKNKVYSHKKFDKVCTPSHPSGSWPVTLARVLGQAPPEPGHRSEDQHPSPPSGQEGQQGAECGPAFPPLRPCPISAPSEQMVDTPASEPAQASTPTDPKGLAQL
Procedure: Figure 4 Unnatural-ligand gating in LBD libraries.A, WT P2X2 was tested with 1 mM ATP, 500 μM AMP-PNP, and compared to ATP with the broken receptor (K81C K83C) control with 1 mM ATP in the fast GCaMP-mScarletI assay (n = 3). […] B, heat map summarizing AMP-PNP signaling (ΔF/ΔT, fast GCaMP-mScarletI assay) in the site-saturation libraries (n = 2–3). All values are normalized to WT P2X2 with saturating amounts of AMP-PNP (500 μM) and therefore represent low signal (ΔF/ΔT) compared to the ATP ligand. C, F301W, F303Y, and A304W were combinatorially combined and tested against the WT, K81C K83C broken P2X2, and the single mutant clones with both ATP (1 mM, black) and AMP-PNP (500 μM, pink). […] Values here represent signal onset and are not normalized to a positive control (n = 2–5). D–K, dose response of each P2X variant with both ATP (black) and AMP-PNP (pink) in the fast GCaMP-mScarletI assay (n = 3). Statistics were performed via one-way ANOVA with Dunnett’s multiple comparisons with to the “broken” K81C K83C negative control. ∗ represents a p value ≤0.05, ∗∗ is p ≤ 0.01, and ∗∗∗ is p ≤ 0.001.
The combined mutations were synergistic, with F303Y + A304W having a predicted additive effect of ca. Ten-fold, relative to the 73-fold seen.
GCaMP assays were performed as follows. P2X2 GCaMP strains were designed with a bi-cistronic reporter, in which the GCaMP protein was followed by a 2A peptide and a mScarletI reporter ([53]). The co-translated mScarletI was designed to act as a control for plasmid loss, GCaMP breakage via nonsense mutation, and contamination. […] P2X2-GCaMP strains were cultured and induced as previously described. Samples were induced for 24 h to allow for the accumulation of the mature GCaMP protein. Cells were washed three times in 0.1 M MES/Tris buffer and resuspended with MES/Tris with supplemental calcium. Cells were loaded onto a black, clear bottom microplate and imaged on a FlexStation3 plate reader. Samples were imaged in “flex” mode. Samples were imaged for 48 s at an interval of 1.6 s. Fluorescence was measured with an excitation at 485 nm, and emission 525 nm. At the 21 s mark, 100 μl ligand solution was transferred to the cells. For strains with mScarlet, fluorescence was read with excitation 570 nm/emission 610 nm. Slopes were calculated from the last 6 points of measurement and were normalized to the positive control samples. Any replicate in which the mScarlet value was measured to be over 2 standard deviations less than the mean for that set was discarded from further analysis.
For multiple comparisons in the site-saturation screening data, One-way ANOVA with Dunnett’s multiple comparisons test was performed where every sample was compared to the “broken” negative control. Significance was plotted where ∗ represents a p value ≤0.05, ∗∗ is p ≤0.01, and ∗∗∗ is p ≤0.001. Dose–response curves were fit with nonlinear regression software using a four-parameter logistic curve. All statistics were calculated and plotted in Graphpad Prism software.

P2X2 A304W = target: T2, P2X2 A304W (Homo sapiens, UniProt Q9UBL9, A304W); experiment: 15-min kinetic GCaMP-mScarletI assay in yeast, P2X2 A304W; type: cell-based; settings: 1 mM ATP or 5 mM AMP-PNP, 15-min bath incubation, n = 3
T2 construct: expressed in transfected cells; host or cells: S. cerevisiae BY4741 background
T2 sequence (Q9UBL9 1-471 A304W): T1 sequence (Q9UBL9 1-471 F301W/F303Y/A304W) with W301F, Y303F
Procedure: To more fully characterize the selected and engineered P2X2 variants, kinetic assays were performed over a longer period (15 min) that provided a more complete view of receptor gating (Fig. 5, A–H).
Figure 5 Kinetic analysis of P2X variants.A–H, P2X2 variants in GCaMP-mScarletI yeast were injected with 1 mM ATP (black) or 5 mM AMP-PNP (pink) and fluorescence was monitored over a 15-min time course of bath incubation. Error bars represent standard deviation of the mean (n = 3).
The A304W mutation therefore appears to either favor the open conformation of the receptor and/or to have slow rates of pore closure.

SMILES | improvement compared to the WT channel (rate of signal onset ΔF/ΔT) (P2X2 F301W+F303Y+A304W; at 500 μM AMP-PNP) [fold] | Bottom, best fit value (P2X2 F301W+F303Y+A304W; n = 3) | Hillslope, best fit value (P2X2 F301W+F303Y+A304W; n = 3) | Top, best fit value (P2X2 F301W+F303Y+A304W; n = 3) | signal decay over the time course (P2X2 A304W) | EC50 (P2X2 F301W+F303Y+A304W; four-parameter logistic fit, n = 3, unit inferred, unit M, read-out: EC50, best fit value) [µM]
Nc1ncnc2c1ncn2[C@@H]1O[C@H](COP(=O)(O)OP(=O)(O)NP(=O)(O)O)[C@@H](O)[C@H]1O [AMP-PNP] | 24 | -0.1127 | 1.945 | 97.49 | a small amount of signal decay | 
Nc1ncnc2c1ncn2[C@@H]1O[C@H](COP(=O)(O)OP(=O)(O)OP(=O)(O)O)[C@@H](O)[C@H]1O [ATP] |  | 0.79 | 2.37 | 148.40 | no sign of decay | 8.88
